The test system of the experiment is M5076. Briefly: In vivo activity against murine tumour M5076. Also noted: species or system mouse. To be noted: 5 mg/kg i.p. days 1, 5 and 9; 1 expt. The procedure:
CD2-F1 mice, of the same sex, weighing within a 3 gram range surrounding 20 g, are used for this test. Control and test animals are injected intraperitoneally with a suspension of 10^6 viable P388/O tumour cells on day 0. In each test several dose levels which bracket the LD20 for the compound are evaluated; each dose level group contains 6 animals. The test compounds are prepared either in physiologic saline containing 0.05% Tween 80 or distilled water containing 5% dextrose and are administered intraperitoneally on days 1,5 and 9 relative to tumour implant. Doses are on a mg/kg basis according to individual animals' body weights. The day of death for each animal is recorded and the median day of death identified for each group. The difference between the median survival time for treated and control groups is expressed as a percentage increase in life span (% ILS).
G. In vivo activity of the compound of Example 1 against murine tumours
Using a similar procedure to the Lymphocytic Leukaemia P388/O test the compound of Example 1 was evaluated against the murine tumours B16, L1210 and M5076. A suspension of 10^6 tumour cells is implanted intraperitoneally into control and test animals on day zero. B16 tumour cells are administered intraperitoneally as a 1:10 Brei of cells on day zero. […] The day of death for each animal is recorded and the %ILS (percentage increase in life-span) calculated.

Take `COC(=O)Nc1cn2nc(OCc3cc(OC)c(OC)c(OC)c3)ccc2n1` [Example 1, Methyl N-[6-(3,4,5-trimethoxybenzyloxy)imidazo[1,2-b]pyridazin-2-yl]carbamate]: the “Mean % ILS (±SEM)” value is on record as 28%.
